Measurements as given in the kinase profiling compilation of Christmann-Franck et al. (2016).
Several values for one entry are separate records, joined by “and”; a condition that tells them apart may be missing. Equal entries are not always repeated.

How the values were obtained:
AURKB (human) = AURKB (human) (UniProt Q96GD4)
BRSK2 (human) = BRSK2 (human) (UniProt Q8IWQ3)
BTK (human) = BTK (human) (UniProt Q06187)
CHEK2 (human) = CHEK2 (human) (UniProt O96017)
CSNK2A1 (human) = CSNK2A1 (human) (UniProt P68400)
DYRK2 (human) = DYRK2 (human) (UniProt Q92630)
DYRK3 (human) = DYRK3 (human) (UniProt O43781)
EEF2K (human) = EEF2K (human) (UniProt O00418)
FLT1 (human) = FLT1 (human) (UniProt P17948)
GSK3B (human) = GSK3B (human) (UniProt P49841)
IKBKB (human) = IKBKB (human) (UniProt O14920)
IKBKE (human) = IKBKE (human) (UniProt Q14164)
INSRR (human) = INSRR (human) (UniProt P14616)
MAPK14 (human) = MAPK14 (human) (UniProt Q16539)
MAPK15 (human) = MAPK15 (human) (UniProt Q8TD08)
MAPK3 (human) = MAPK3 (human) (UniProt P27361)
MAPK8 (human) = MAPK8 (human) (UniProt P45983)
MAPKAPK5 (human) = MAPKAPK5 (human) (UniProt Q8IW41)
MARK3 (human) = MARK3 (human) (UniProt P27448)
MST4 (human) = MST4 (human) (UniProt Q9P289)
NEK2 (human) = NEK2 (human) (UniProt P51955)
PAK6 (human) = PAK6 (human) (UniProt Q9NQU5)
PDPK1 (human) = PDPK1 (human) (UniProt O15530)
PIM1 (human) = PIM1 (human) (UniProt P11309)
PRKCA (human) = PRKCA (human) (UniProt P17252)
PRKCZ (human) = PRKCZ (human) (UniProt Q05513)
RPS6KA1 KD1 KD2 (human) = RPS6KA1 KD1 KD2 (human) (UniProt Q15418)
RPS6KA3 KD1 KD2 (human) = RPS6KA3 KD1 KD2 (human) (UniProt P51812)
[1] = tested on: RPS6KB1 (human), P23443 [T412E]
[2] = tested on: SGK1 (human), O00141 [S422D]
SRC (human) = SRC (human) (UniProt P12931)
SYK (human) = SYK (human) (UniProt P43405)
TBK1 (human) = TBK1 (human) (UniProt Q9UHD2)
YES1 (human) = YES1 (human) (UniProt P07947)
Sequence of YES1 (human) (P07947 whole entry, looked up): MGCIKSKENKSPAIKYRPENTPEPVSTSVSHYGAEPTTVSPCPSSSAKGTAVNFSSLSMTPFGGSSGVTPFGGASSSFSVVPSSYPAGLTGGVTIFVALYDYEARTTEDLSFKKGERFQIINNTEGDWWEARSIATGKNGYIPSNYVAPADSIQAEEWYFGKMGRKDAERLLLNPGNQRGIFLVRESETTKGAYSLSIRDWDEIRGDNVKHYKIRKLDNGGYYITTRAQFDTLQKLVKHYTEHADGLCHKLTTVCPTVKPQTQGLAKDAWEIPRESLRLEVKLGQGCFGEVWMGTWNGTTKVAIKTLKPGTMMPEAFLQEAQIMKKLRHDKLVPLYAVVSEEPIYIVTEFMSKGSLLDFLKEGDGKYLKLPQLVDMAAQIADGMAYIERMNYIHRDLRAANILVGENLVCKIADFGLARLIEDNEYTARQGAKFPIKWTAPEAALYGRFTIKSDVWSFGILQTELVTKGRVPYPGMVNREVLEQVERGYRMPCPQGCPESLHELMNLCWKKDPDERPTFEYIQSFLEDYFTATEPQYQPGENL

Sequence of PIM1 (human) (P11309 whole entry, looked up): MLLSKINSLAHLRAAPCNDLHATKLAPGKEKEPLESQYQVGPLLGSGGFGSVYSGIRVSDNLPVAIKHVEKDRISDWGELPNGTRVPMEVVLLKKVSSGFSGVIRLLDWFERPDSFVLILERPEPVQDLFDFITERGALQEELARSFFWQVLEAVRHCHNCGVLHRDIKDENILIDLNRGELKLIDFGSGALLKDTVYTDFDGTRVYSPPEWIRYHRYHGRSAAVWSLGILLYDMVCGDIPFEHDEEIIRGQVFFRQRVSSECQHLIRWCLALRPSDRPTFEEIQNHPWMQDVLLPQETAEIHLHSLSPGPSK
Sequence of IKBKE (human) (Q14164 whole entry, looked up): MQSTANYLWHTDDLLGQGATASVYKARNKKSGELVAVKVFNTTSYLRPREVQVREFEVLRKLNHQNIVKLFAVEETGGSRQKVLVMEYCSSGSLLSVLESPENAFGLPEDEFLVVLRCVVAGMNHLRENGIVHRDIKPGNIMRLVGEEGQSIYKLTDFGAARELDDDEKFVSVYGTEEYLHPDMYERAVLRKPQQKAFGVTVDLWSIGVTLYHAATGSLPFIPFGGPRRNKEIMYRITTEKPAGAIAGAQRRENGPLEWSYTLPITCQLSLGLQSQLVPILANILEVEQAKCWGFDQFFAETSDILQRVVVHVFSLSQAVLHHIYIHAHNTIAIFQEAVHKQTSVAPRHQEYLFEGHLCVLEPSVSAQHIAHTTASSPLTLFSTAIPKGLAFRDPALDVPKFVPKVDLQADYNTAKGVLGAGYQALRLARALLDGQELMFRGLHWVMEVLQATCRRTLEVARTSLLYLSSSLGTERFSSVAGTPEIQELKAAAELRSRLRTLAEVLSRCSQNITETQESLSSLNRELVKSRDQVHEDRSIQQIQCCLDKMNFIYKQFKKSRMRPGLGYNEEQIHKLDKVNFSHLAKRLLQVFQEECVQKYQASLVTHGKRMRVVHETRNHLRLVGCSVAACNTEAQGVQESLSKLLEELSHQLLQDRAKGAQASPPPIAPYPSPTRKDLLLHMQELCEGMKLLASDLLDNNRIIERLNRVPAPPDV
Sequence of PAK6 (human) (Q9NQU5 whole entry, looked up): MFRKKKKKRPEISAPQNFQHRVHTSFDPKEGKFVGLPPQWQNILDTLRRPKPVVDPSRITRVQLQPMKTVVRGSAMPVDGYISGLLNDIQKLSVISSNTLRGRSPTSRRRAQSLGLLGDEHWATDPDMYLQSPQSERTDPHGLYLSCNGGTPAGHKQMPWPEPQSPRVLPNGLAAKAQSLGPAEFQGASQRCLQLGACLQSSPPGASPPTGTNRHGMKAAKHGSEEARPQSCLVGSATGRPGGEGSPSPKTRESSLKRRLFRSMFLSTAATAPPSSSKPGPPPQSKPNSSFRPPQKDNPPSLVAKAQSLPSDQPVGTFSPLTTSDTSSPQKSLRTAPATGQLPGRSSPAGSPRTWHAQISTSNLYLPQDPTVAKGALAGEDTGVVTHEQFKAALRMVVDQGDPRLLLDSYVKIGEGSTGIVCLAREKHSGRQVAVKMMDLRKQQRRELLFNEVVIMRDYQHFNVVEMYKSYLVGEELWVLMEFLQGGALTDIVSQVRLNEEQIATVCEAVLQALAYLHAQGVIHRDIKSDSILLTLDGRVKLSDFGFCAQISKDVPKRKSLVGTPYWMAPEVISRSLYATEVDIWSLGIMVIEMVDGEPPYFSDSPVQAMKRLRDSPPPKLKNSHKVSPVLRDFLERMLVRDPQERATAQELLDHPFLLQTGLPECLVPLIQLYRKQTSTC
Sequence of GSK3B (human) (P49841 whole entry, looked up): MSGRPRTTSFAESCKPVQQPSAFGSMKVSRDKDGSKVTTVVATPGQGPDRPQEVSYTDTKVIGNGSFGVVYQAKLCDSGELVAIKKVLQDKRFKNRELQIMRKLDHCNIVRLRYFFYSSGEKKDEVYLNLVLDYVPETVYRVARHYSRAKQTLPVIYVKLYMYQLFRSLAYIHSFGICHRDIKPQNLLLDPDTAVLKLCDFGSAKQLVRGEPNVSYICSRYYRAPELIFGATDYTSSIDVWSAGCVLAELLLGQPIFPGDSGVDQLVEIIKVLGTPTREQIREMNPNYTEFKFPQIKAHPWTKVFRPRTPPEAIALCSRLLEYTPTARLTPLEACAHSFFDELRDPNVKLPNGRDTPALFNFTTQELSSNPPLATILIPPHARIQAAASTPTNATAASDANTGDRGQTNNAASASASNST
Sequence of PRKCZ (human) (Q05513 whole entry, looked up): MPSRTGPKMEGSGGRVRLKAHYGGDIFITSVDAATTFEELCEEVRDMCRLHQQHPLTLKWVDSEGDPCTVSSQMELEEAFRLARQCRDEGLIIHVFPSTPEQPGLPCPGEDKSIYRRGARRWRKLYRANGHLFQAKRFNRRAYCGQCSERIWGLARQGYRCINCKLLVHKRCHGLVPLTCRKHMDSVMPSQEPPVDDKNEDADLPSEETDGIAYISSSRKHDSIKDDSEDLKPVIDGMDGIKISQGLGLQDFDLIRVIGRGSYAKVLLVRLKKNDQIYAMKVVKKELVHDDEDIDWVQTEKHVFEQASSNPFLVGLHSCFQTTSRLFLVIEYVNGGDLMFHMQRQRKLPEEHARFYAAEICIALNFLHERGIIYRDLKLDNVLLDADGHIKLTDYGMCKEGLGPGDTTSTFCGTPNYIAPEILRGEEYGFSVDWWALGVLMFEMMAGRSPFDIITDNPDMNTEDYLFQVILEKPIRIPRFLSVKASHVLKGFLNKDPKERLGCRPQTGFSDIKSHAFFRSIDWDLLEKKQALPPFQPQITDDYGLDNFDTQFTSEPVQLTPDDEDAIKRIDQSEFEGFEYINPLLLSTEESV
Sequence of DYRK2 (human) (Q92630 whole entry, looked up): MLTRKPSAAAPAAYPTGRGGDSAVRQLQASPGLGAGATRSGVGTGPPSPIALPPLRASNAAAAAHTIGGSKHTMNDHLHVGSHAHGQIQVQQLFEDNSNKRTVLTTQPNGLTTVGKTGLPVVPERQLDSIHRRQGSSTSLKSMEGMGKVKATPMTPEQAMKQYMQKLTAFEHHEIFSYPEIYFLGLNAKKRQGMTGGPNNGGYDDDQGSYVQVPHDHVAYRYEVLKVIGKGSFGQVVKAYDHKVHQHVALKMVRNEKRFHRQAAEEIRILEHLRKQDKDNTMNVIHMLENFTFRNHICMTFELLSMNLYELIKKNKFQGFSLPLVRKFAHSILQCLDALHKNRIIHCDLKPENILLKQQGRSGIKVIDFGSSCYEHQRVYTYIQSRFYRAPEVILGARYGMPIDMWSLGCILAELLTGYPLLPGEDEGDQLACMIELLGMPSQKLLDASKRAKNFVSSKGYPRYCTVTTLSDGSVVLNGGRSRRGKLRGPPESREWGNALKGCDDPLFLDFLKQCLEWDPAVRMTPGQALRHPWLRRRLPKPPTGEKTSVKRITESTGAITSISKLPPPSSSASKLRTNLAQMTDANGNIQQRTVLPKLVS
Sequence of EEF2K (human) (O00418 whole entry, looked up): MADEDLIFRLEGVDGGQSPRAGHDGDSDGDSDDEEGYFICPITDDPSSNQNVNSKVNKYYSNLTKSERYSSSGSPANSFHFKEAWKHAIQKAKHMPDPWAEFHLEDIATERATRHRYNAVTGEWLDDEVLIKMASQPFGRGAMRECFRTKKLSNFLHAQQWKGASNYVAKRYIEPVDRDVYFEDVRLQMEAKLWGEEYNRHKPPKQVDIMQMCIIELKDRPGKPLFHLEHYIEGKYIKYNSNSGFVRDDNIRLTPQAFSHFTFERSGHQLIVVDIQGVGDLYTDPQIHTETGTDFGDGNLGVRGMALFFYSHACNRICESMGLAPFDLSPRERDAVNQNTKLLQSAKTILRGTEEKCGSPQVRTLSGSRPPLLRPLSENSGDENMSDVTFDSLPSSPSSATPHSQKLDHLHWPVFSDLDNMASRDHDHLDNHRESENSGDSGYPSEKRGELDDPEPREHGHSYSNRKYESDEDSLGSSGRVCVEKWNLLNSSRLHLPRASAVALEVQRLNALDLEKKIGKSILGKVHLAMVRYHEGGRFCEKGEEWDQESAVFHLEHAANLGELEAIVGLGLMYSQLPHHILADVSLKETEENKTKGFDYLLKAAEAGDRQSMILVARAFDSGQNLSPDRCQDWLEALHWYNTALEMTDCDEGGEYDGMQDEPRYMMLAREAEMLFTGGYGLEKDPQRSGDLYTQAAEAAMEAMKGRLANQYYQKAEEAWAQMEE
Sequence of MAPK14 (human) (Q16539 whole entry, looked up): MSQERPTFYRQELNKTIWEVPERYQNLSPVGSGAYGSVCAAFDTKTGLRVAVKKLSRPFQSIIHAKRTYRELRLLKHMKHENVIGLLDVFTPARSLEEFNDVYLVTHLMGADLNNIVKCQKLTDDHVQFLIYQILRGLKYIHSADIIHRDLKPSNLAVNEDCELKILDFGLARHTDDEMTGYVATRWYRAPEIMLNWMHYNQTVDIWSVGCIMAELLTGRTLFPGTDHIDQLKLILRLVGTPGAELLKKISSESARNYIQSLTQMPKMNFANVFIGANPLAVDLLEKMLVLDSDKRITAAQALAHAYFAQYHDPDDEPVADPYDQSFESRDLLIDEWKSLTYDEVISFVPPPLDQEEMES

## COC(=O)Nc1ccc(-c2nc(N3CCOCC3)c3cnn(C4CCN(C(=O)OC)CC4)c3n2)cc1
AURKB (human); compound 1.0 µM
  per cent of control: 91%
AURKB (human); compound 10.0 µM
  per cent of control: 100%
BRSK2 (human); compound 1.0 µM
  per cent of control: 95%
BRSK2 (human); compound 10.0 µM
  per cent of control: 88%
BTK (human); compound 1.0 µM
  per cent of control: 116%
BTK (human); compound 10.0 µM
  per cent of control: 99%
CHEK2 (human); compound 1.0 µM
  per cent of control: 86%
CHEK2 (human); compound 10.0 µM
  per cent of control: 88%
CSNK2A1 (human); compound 1.0 µM
  per cent of control: 99%
CSNK2A1 (human); compound 10.0 µM
  per cent of control: 92%
DYRK2 (human); compound 1.0 µM
  per cent of control: 92%
DYRK2 (human); compound 10.0 µM
  per cent of control: 96%
DYRK3 (human); compound 1.0 µM
  per cent of control: 84%
DYRK3 (human); compound 10.0 µM
  per cent of control: 77%
EEF2K (human); compound 1.0 µM
  per cent of control: 97%
EEF2K (human); compound 10.0 µM
  per cent of control: 106%
FLT1 (human); compound 1.0 µM
  per cent of control: 100%
FLT1 (human); compound 10.0 µM
  per cent of control: 88%
GSK3B (human); compound 1.0 µM
  per cent of control: 86%
GSK3B (human); compound 10.0 µM
  per cent of control: 93%
IKBKB (human); compound 1.0 µM
  per cent of control: 97%
IKBKB (human); compound 10.0 µM
  per cent of control: 100%
IKBKE (human); compound 1.0 µM
  per cent of control: 90%
IKBKE (human); compound 10.0 µM
  per cent of control: 90%
INSRR (human); compound 1.0 µM
  per cent of control: 88%
INSRR (human); compound 10.0 µM
  per cent of control: 99%
MAPK14 (human); compound 1.0 µM
  per cent of control: 97%
MAPK14 (human); compound 10.0 µM
  per cent of control: 88%
MAPK15 (human); compound 1.0 µM
  per cent of control: 94%
MAPK15 (human); compound 10.0 µM
  per cent of control: 98%
MAPK3 (human); compound 1.0 µM
  per cent of control: 90%
MAPK3 (human); compound 10.0 µM
  per cent of control: 97%
MAPK8 (human); compound 1.0 µM
  per cent of control: 93%
MAPK8 (human); compound 10.0 µM
  per cent of control: 91%
MAPKAPK5 (human); compound 1.0 µM
  per cent of control: 98%
MAPKAPK5 (human); compound 10.0 µM
  per cent of control: 74%
MARK3 (human); compound 1.0 µM
  per cent of control: 92%
MARK3 (human); compound 10.0 µM
  per cent of control: 107%
MST4 (human); compound 1.0 µM
  per cent of control: 88%
MST4 (human); compound 10.0 µM
  per cent of control: 82%
NEK2 (human); compound 1.0 µM
  per cent of control: 93%
NEK2 (human); compound 10.0 µM
  per cent of control: 101%
PAK6 (human); compound 1.0 µM
  per cent of control: 99%
PAK6 (human); compound 10.0 µM
  per cent of control: 90%
PDPK1 (human); compound 1.0 µM
  per cent of control: 98% and 100%
PDPK1 (human); compound 10.0 µM
  per cent of control: 80% and 101%
PIM1 (human); compound 1.0 µM
  per cent of control: 117%
PIM1 (human); compound 10.0 µM
  per cent of control: 103%
PRKCA (human); compound 1.0 µM
  per cent of control: 81%
PRKCA (human); compound 10.0 µM
  per cent of control: 75%
PRKCZ (human); compound 1.0 µM
  per cent of control: 93%
PRKCZ (human); compound 10.0 µM
  per cent of control: 106%
RPS6KA1 KD1 KD2 (human); compound 1.0 µM
  per cent of control: 100%
RPS6KA1 KD1 KD2 (human); compound 10.0 µM
  per cent of control: 102%
RPS6KA3 KD1 KD2 (human); compound 1.0 µM
  per cent of control: 88%
RPS6KA3 KD1 KD2 (human); compound 10.0 µM
  per cent of control: 87%
[1]; compound 1.0 µM
  per cent of control: 94%
[1]; compound 10.0 µM
  per cent of control: 93%
[2]; compound 1.0 µM
  per cent of control: 85%
[2]; compound 10.0 µM
  per cent of control: 77%
SRC (human); compound 1.0 µM
  per cent of control: 90%
SRC (human); compound 10.0 µM
  per cent of control: 67%
SYK (human); compound 1.0 µM
  per cent of control: 124%
SYK (human); compound 10.0 µM
  per cent of control: 127%
TBK1 (human); compound 1.0 µM
  per cent of control: 96%
TBK1 (human); compound 10.0 µM
  per cent of control: 94%
YES1 (human); compound 1.0 µM
  per cent of control: 109%
YES1 (human); compound 10.0 µM
  per cent of control: 113%

## COc1ccc(-c2ccc3c(N4CCOCC4)nc(N4C[C@@H](C)O[C@@H](C)C4)nc3n2)cc1CO
AURKB (human); compound 10.0 µM
  per cent of control: 86%
BRSK2 (human); compound 1.0 µM
  per cent of control: 90%
BRSK2 (human); compound 10.0 µM
  per cent of control: 72%
BTK (human); compound 1.0 µM
  per cent of control: 85%
BTK (human); compound 10.0 µM
  per cent of control: 81%
CSNK2A1 (human); compound 1.0 µM
  per cent of control: 104%
CSNK2A1 (human); compound 10.0 µM
  per cent of control: 85%
DYRK2 (human); compound 1.0 µM
  per cent of control: 92%
DYRK2 (human); compound 10.0 µM
  per cent of control: 96%
DYRK3 (human); compound 1.0 µM
  per cent of control: 88%
DYRK3 (human); compound 10.0 µM
  per cent of control: 84%
EEF2K (human); compound 1.0 µM
  per cent of control: 88%
EEF2K (human); compound 10.0 µM
  per cent of control: 108%
FLT1 (human); compound 1.0 µM
  per cent of control: 92%
FLT1 (human); compound 10.0 µM
  per cent of control: 92%
GSK3B (human); compound 1.0 µM
  per cent of control: 95%
GSK3B (human); compound 10.0 µM
  per cent of control: 91%
IKBKB (human); compound 1.0 µM
  per cent of control: 104%
IKBKB (human); compound 10.0 µM
  per cent of control: 89%
IKBKE (human); compound 1.0 µM
  per cent of control: 99%
IKBKE (human); compound 10.0 µM
  per cent of control: 100%
INSRR (human); compound 1.0 µM
  per cent of control: 105%
INSRR (human); compound 10.0 µM
  per cent of control: 71%
MAPK14 (human); compound 1.0 µM
  per cent of control: 101%
MAPK14 (human); compound 10.0 µM
  per cent of control: 96%
MAPK15 (human); compound 1.0 µM
  per cent of control: 88%
MAPK15 (human); compound 10.0 µM
  per cent of control: 92%
MAPK3 (human); compound 1.0 µM
  per cent of control: 102%
MAPK3 (human); compound 10.0 µM
  per cent of control: 87%
MAPK8 (human); compound 1.0 µM
  per cent of control: 80%
MAPK8 (human); compound 10.0 µM
  per cent of control: 93%
MAPKAPK5 (human); compound 1.0 µM
  per cent of control: 67%
MAPKAPK5 (human); compound 10.0 µM
  per cent of control: 87%
MARK3 (human); compound 1.0 µM
  per cent of control: 93%
MARK3 (human); compound 10.0 µM
  per cent of control: 93%
MST4 (human); compound 1.0 µM
  per cent of control: 87%
MST4 (human); compound 10.0 µM
  per cent of control: 86%
NEK2 (human); compound 1.0 µM
  per cent of control: 92%
NEK2 (human); compound 10.0 µM
  per cent of control: 86%
PAK6 (human); compound 1.0 µM
  per cent of control: 75%
PAK6 (human); compound 10.0 µM
  per cent of control: 100%
PDPK1 (human); compound 1.0 µM
  per cent of control: 80% and 89%
PDPK1 (human); compound 10.0 µM
  per cent of control: 91% and 101%
PIM1 (human); compound 1.0 µM
  per cent of control: 89%
PIM1 (human); compound 10.0 µM
  per cent of control: 98%
PRKCA (human); compound 1.0 µM
  per cent of control: 106%
PRKCA (human); compound 10.0 µM
  per cent of control: 86%
PRKCZ (human); compound 1.0 µM
  per cent of control: 87%
PRKCZ (human); compound 10.0 µM
  per cent of control: 84%
RPS6KA1 KD1 KD2 (human); compound 1.0 µM
  per cent of control: 100%
RPS6KA1 KD1 KD2 (human); compound 10.0 µM
  per cent of control: 86%
RPS6KA3 KD1 KD2 (human); compound 1.0 µM
  per cent of control: 103%
RPS6KA3 KD1 KD2 (human); compound 10.0 µM
  per cent of control: 104%
[1]; compound 1.0 µM
  per cent of control: 104%
[1]; compound 10.0 µM
  per cent of control: 98%
[2]; compound 1.0 µM
  per cent of control: 76%
[2]; compound 10.0 µM
  per cent of control: 64%
SRC (human); compound 10.0 µM
  per cent of control: 86%
SYK (human); compound 1.0 µM
  per cent of control: 88%
SYK (human); compound 10.0 µM
  per cent of control: 83%
TBK1 (human); compound 1.0 µM
  per cent of control: 97%
TBK1 (human); compound 10.0 µM
  per cent of control: 89%
YES1 (human); compound 1.0 µM
  per cent of control: 94%
YES1 (human); compound 10.0 µM
  per cent of control: 90%
